Data as given in patent EP0075047A1, “1-(Substituted phenylthiocarbamyl) 3,3-disubstituted formamidines and their production and pharmaceutical compositions containing them” (STAUFFER CHEMICAL COMPANY, priority 1981, dated 1983).
Counter-ions that a name gives are not always drawn.

Tests used:
adjuvant arthritis = assay: Adjuvant arthritis inhibition (hind-foot volume, primary and secondary lesions); assay type: in vivo, Wistar male rats (Taiwan strain); details: five daily doses, rat; for Percent Reduction in Edema of the Primary Lesion: injected right hind paw measured four hours after fifth dose; for Percent Reduction in Edema of the Secondary Lesion: uninjected foot measured fourteen days after adjuvant inoculation
Excerpt: (§1) The first test is for adjuvant arthritis inhibition and the second, an anti-edema test, involves the diminution of experimental edema induced in the hind paw of a rat by the injection of carrageenin.
This test was run according to the test procedure recited by VanArman, G. C., Nuss, G. W. and Risley, E. A., J. Pharmacol..Exper. Terap., 187:400-413, 1973. The following is a description of the test: • The hind-foot volumes of five Wistar male. rats (Taiwan strain) weighing 130-160 g each were measured by fluid displacement immediately prior to intraplantar administration (right hind paw) of 0.1 ml of an adjuvant suspension containing 5 milligrams (mg) Mycobacterium butyricum bacilli suspended in heavy mineral oil. Test compounds were orally administered to the animals for five days beginning the day before injection of the adjuvant. Four hours after the fifth daily drug dose the volume of the right hind paw (primary lesion) was measured for determination of any acute anti-inflammatory effect. Fourteen days after adjuvant inoculation the volume of the uninjected foot was measured (secondary lesion) for determination of prolonged anti-inflammatory effect or immunosuppressant effect. The percent reduction in foot volume was calculated for each hind paw in relation to corresponding control values determined simultaneously. A greater than 30 percent reduction in volume of either paw is considered a significant effect. Reduction of the primary lesion without effect on the secondary lesion denotes acute anti-inflammatory activity of short to moderate duration.

Systolic blood pressure = assay: Anti-hypertensive screening (systolic blood pressure by tail cuff); assay type: in vivo, normotensive Wistar rats (Taiwan strain); details: 100 mg/kg oral, rat
Protocol: This test was run according to the test procedure recited by Nagoaka, A., Kikuchi, K. and Aramaki, Y., Jap. J. Pharmacol., 19:401-408, 1969. For this test, two normotensive Wistar rats (Taiwan strain) were placed in perspex holders and then placed in a heated chamber at 40°C for 4-6 minutes before treatment. They were maintained there throughout each experiment. Systolic blood pressure was recorded by indirect means employing a tail cuff and pneumatic sensor device applied to the base of the animals' tails. The device was coupled to a programmed Narco-Biosystems sphygmomano meter (Model PE-300), an instrument for measuring blood pressure, and Sanei polygraph. After recording suitably steady blood pressure readings, test drugs were orally administered and blood pressure checked again 2, 4 and 6 hours after drug administration. A mean decrease of more than 10 percent from the pretreatment value at any two consecutive measurement intervals is considered evidence of hypotensive effect.

[1] = test system: carrigeenan-induced swelling; assay: Anti-edema test (carrageenin-induced hind paw edema); assay type: in vivo, male Wistar rats (Taiwan strain); details: one hour before carrigeenan, measured three hours after injection, rat
Protocol: as §1
Anti-edema effect was determined according to the test procedure recited by Winter, C.A., Risley, E. A., and Nuss, G. W., Proc. Exper. Biol. Med. 111:544-547, 1962. For this test, three male Wistar rats (Taiwan strain) weighing 100-120 g each are orally dosed with test compound dissolved or suspended in 3 ml of water. One hour later, the plantar surface of the right hind paw was injected with 0.1 ml of a 1 percent suspension of carrigeenan in saline and the left paw was similarly injected with saline only. Three hours after the injection the volume of both hind paw was measured by fluid displacement and the percent decrease in carrigeenan-induced swelling (volume of carrigeenan injected foot minus saline injected foot) was determined by comparison with untreated (no test compound) animals. Greater than 30 percent inhibition is considered evidence of an anti-edema effect.

| Structure (SMILES) | Percent Reduction in Edema of the Primary Lesion (adjuvant arthritis; 100 mg/kg oral) [%] | Percent Reduction in Edema of the Secondary Lesion (adjuvant arthritis; 100 mg/kg oral) [%] | Percent Mean Decrease in Systolic Blood Pressure (Systolic blood pressure; 2 hours after administration) [%] | Percent Mean Decrease in Systolic Blood Pressure (Systolic blood pressure; 4 hours after administration) [%] | Percent Mean Decrease in Systolic Blood Pressure (Systolic blood pressure; 6 hours after administration) [%] | Reduction of Induced Edema ([1]; 100 mg/kg oral) [%] | other results |
| --- | --- | --- | --- | --- | --- | --- | --- |
| Cc1ccc(NC(=S)N=CN(C)C)c(C)c1 [Compound 4] | 0 | 0 | 4 | 17 | 15 | – | – |
| CCc1cccc(CC)c1NC(=S)N=CN(C)C [Compound 3] | 39 | 31 | – | – | – | 33 | – |
| COc1ccc(NC(=S)N=CN(C)C)cc1 [Compound 1, 1-(p-methoxyphenylthiocarbamyl) 3,3-dimethyl formamidine hydrochloride] | – | – | – | – | – | – | Reduction of Induced Edema ([1]; 5 mg/kg oral): 35%; Percent Reduction in Edema of the Primary Lesion (adjuvant arthritis; 5 mg/kg oral): 39%; Percent Reduction in Edema of the Secondary Lesion (adjuvant arthritis; 5 mg/kg oral): 35% |
| C[C@](N)(Cc1ccc(O)c(O)c1)C(=O)O [α-methyl 3,4-dihydroxy-phenylalanine, reference compound] | – | – | 11 | 21 | 19 | – | – |
| CCCCC1C(=O)N(c2ccccc2)N(c2ccccc2)C1=O [phenylbutazone, reference compound] | – | – | – | – | – | 41 | – |
| CN(C)C=NC(=S)Nc1ccc(Cl)cc1 [Compound 2] | – | – | – | – | – | – | Reduction of Induced Edema ([1]; 25 mg/kg oral): 32% |
